Assay results published in US8476292B2, “Amide and carbamate derivatives of N-{2-[4-amino-2-(ethoxymethyl)-1H-imidazo[4,5-c] quinolin-1-Yl]-1,1-dimethylethyl}methanesulfonamide and methods” (3M Innovative Properties Company, priority 2005, dated 2013).

SMILES | melting point [°C]
CCOCc1nc2c(NC(C)=O)nc3ccccc3c2n1CC(C)(C)NS(C)(=O)=O [Example 1, N-(2-Ethoxymethyl-1-{2-methyl-2-[(methylsulfonyl)amino]propyl}-1H-imidazo[4,5-c]quinolin-4-yl)acetamide] | 75 to 76
CCOCc1nc2c(NC(=O)c3ccccc3)nc3ccccc3c2n1CC(C)(C)NS(C)(=O)=O [Example 2, N-(2-Ethoxymethyl-1-{2-methyl-2-[(methylsulfonyl)amino]propyl}-1H-imidazo[4,5-c]quinolin-4-yl)benzamide] | 80 to 83
CCOCc1nc2c(NC(=O)C(C)C)nc3ccccc3c2n1CC(C)(C)NS(C)(=O)=O [Example 3] | 67 to 70
CCOCc1nc2c(NC(=O)OCC)nc3ccccc3c2n1CC(C)(C)NS(C)(=O)=O [Example 5, Ethyl 2-Ethoxymethyl-1-{2-methyl-2-[(methylsulfonyl)amino]propyl}-1H-imidazo[4,5-c]quinolin-4-ylcarbamate] | 163 to 165
CCCOC(=O)Nc1nc2ccccc2c2c1nc(COCC)n2CC(C)(C)NS(C)(=O)=O [Example 6, Propyl 2-Ethoxymethyl-1-{2-methyl-2-[(methylsulfonyl)amino]propyl}-1H-imidazo[4,5-c]quinolin-4-ylcarbamate] | 177 to 179
CCCCOC(=O)Nc1nc2ccccc2c2c1nc(COCC)n2CC(C)(C)NS(C)(=O)=O [Example 7, Butyl 2-Ethoxymethyl-1-{2-methyl-2-[(methylsulfonyl)amino]propyl}-1H-imidazo[4,5-c]quinolin-4-ylcarbamate] | 125 to 127
